# Measured values from US8658592B2, “Biologically active peptides and their new uses” (priority 2005, dated 2014).
# Marks after values point to notes of the source that are not given here. Square brackets hold non-standard residues; d marks the D form. Ends that are not written are not given here. Nle = CCCC[C@H](N)C(=O)O
# How the values were obtained:
# hepatocarcinoma H22 = experiment: survival of mice transplanted with H22 hepatocarcinoma; assay type: in vivo, BALB/c mice; details: for survival of mice transplanted with H22 tumor cells: 80 μg/kg/day, vs saline control P<0.05; for Survival Prolongation / Survival time (first column) / Survival time (second column): 80 μg/kg daily i.p.
# Procedure: Healthy BALB/c mice were randomized into groups of CMS-024.04, CMS-025.05, CMS-024.14, and CMS-024.16 (80 μg/kg/day), 5-Fu (20 mg/kg/day, once for every two days), saline (0.2 ml/day), and normal group (without tumor cell inoculation).
# Mice inoculated with hepatocarcinomas for 6-8 days were sacrificed. The ascites was collected and the cell concentration adjusted to 5×10^7/ml with D-Hanks' solution. 0.2 ml of this was inoculated intraperitoneally to each BALB/c mouse except for the normal controls.
# Administration of test substance was started on the next day after the tumor cell inoculation. The peptides and saline were applied daily and 5-FU once every two days for 60 continuous days or until the death of the mice.
# The time of death was recorded and survival time prolongation calculated. Survival time prolongation was calculated as below: Survival prolongation (%)=(Average survival days of test group)−(Average survival days of saline control group)/(Average survival days of saline group)×100%.
# [1] = test system: human gastric carcinoma BGC-823 xenograft; experiment: nude mice-transplanted human gastric carcinoma BGC-823 xenograft; assay type: in vivo, BALB/c (nu/nu) nude mice; details: 30 days
# Procedure: Hunan gastric carcinoma cell line BGC-823 at log phase were adjusted to the concentration of 2×10^7/ml and then inoculated subcutaneously to the back of nude mice (0.1 ml per mouse). The inoculated animals were randomized into groups of CMS024-16 (160 μg/kg/day, 320 μg/kg/day, and 640 μg/kg/day, all at 0.2 ml/day), positive control (5-Fu, 20 mg/kg/day at 0.2 ml/day), and negative control (normal saline, 0.2 ml/day). Administration of test substances by intraperitoneal injection was started on the next day after tumor implantation once per day for 30 continuous days. On the next day after the last injection, the tumor masses were collected and their weights determined Inhibition rate=(Mean weight of negative control−Mean weight of test group)/(Mean weight of negative control)×100%
# [2] = test system: Balb/c mice swimming time model; experiment: exhaustive swimming time of mice (Example 11); assay type: in vivo; details: 20 μg/kg/day i.p., 30 days
# Procedure: Balb/c male mice were randomized into groups of CMS-001.30 (20 μg/kg/day), CMS-001.31 (20 μg/kg/day), EPO (1000 u/kg/day, three times per week), and saline control. The test substance was dissolved in 0.5 ml saline and applied intraperitoneally once per day for 30 continuous days (EPO was replaced with saline if EPO was not applied). On the tenth day, the mice were trained to swim for 10 min at water temperature of 25±1° C. 30 min after the last test substance administration, the mice were placed to swim in the swimming tank (50 cm×50 cm×40 cm). The depth of water was 30 cm and water temperature 25±1° C. The limbs of the mice were kept moving in the whole process. The swimming (min) time of the mice until death was recorded. Exhaustive swimming time extension rate (ESTR) (%)=(Mean exhaustive swimming time of test group−Mean exhaustive swimming time of saline control)/(Mean exhaustive swimming time of saline control)×100%. 1.4 Statisitics
# BALB/c mice [3] = experiment: liver glycogen level of mice; assay type: in vivo
# Procedure: The mice were randomized into groups of CMS-001 (20 μg/kg/day, 5 μg/kg/day), CMS-008 (500 μg/kg/day, 125 μg/kg/day), and saline control. The test substance was administered by intraperitoneal injection once per day for 30 continuous days. A week after the start the of the test substance administration, the mice were trained to swim for 10 min, at water temperature of 25±1° C. 30 min after the last injection, the mice were killed by cervical dislocation and the liver was dissected, washed with saline, and blotted dry with filter paper. About 100 mg liver was accurately weighed and the liver glycogen level was determined by the Anthracene Ketone reagent kit. Glycogen weight (mg) in every 100 g of liver=DU/DS×0.5×homogenization liquid vol./liver weight(g)×100×0.9.
# BALB/c mice [4] = experiment: serum urea nitrogen level after exercise; assay type: in vivo
# Procedure: (§1) The mice were randomized into groups of CMS-001 (20 μg/kg/day, 5 μg/kg/day), CMS-008 (500 μg/kg/day, 125 μg/kg/day), and saline control. The test substance was administered by intraperitoneal injection once per day for 30 continuous days. A week after the start the of the test substance administration, the mice were trained to swim for 10 min, at water temperature of 25±1° C. 30 min after the last injection, the mice were placed to swim in the swimming tank without addition of weight for 90 min, at water depth of 30 cm temperature of 30±1° C. The mice were then allowed to rest for 30 min, and blood was collected from the orbital sinus. The serum was isolated and the BUN was determined by a fully automated Biochemistry Analyser.
# BALB/c mice [5] = experiment: serum SOD, MDA, AST, ALT levels after exhaustive exercise; assay type: in vivo; details: 20 μg/kg/day
# Procedure: as §1, with “weight” for “weight for 90 min,”, “cm and” for “cm”, “25±1° C.^[4]. By the first time the mice sunk, the” for “30±1° C. The”, “rescued” for “then allowed to rest for 30 min,”, “sinus immediately.” for “sinus.”, “MDA, SOD, AST, and ALT levels determined.” for “BUN was determined by a fully automated Biochemistry Analyser.”
# [6] = test system: BALB/c mice exhaustive swimming model; experiment: exhaustive swimming time of mice; assay type: in vivo; details: 30 days
# Procedure: (§2) The mice were randomized into groups of CMS-001 (20 μg/kg/day, 5 μg/kg/day), CMS-008 (500 μg/kg/day, 125 μg/kg/day), and saline control. The test substance was administered by intraperitoneal injection once per day for 30 continuous days. A week after the start the of the test substance administration, the mice were trained to swim for 10 min, at water temperature of 25±1° C.
# 30 min after the last injection, the mice were weighed, and lead pieces corresponding to 5% of the body weight were wrapped to the tails of the mice at about 1 cm away from the body. The mice were placed in the swimming tank, at water depth of 30 cm and temperature of 25±1° C. The limbs of the mice were kept moving in the whole process. The time of swimming until the death was recorded.
# BALB/c mice [7] = experiment: blood lactic acid level of mice after exercise; assay type: in vivo; details: for Lactic acid elimination after rest: 20 min rest
# Procedure: as §2
# 30 min after the last injection, 20 μl of blood was first collected from the orbital sinus. The mice were then weighed, and lead pieces corresponding to 4% of the body weight were wrapped to the tails of the mice at about 1 cm away from the body. The mice were placed to swim in the swimming tank for 10 min, at water depth of 30 cm and temperature of 30±1° C. The limbs of the mice were kept moving in the whole process. Immediately after the exercise and after resting for 20 min, 20 μl of blood was collected from the orbital sinus again. The blood was added into 40 μl hypotonic buffer and sonicated. Lactic acid level in the blood was determined by the lactic acid analyzer.
# The amount of lactic acid increase after exercise is calculated based on the amount of lactic acid level immediately after exercise minus the lactic acid level before exercise.
# The amount of lactic acid elimination after rest was calculated based on the amount of lactic acid level immediately after exercise minus the lactic acid level after rest.
substance,measurement,setting,value
Leu-Tyr-Ser (LYS; Synthetically prepared peptide sequence) [CMS-024.16],survival of mice transplanted with H22 tumor cells,hepatocarcinoma H22,prolong the survival
same,Survival Prolongation,hepatocarcinoma H22; Table 6.2 experiment,57.8%
same,Survival time (first column),hepatocarcinoma H22; Table 6.2 experiment,18.0 ± 1.0 days
same,Survival time (second column),hepatocarcinoma H22; Table 6.2 experiment,29.0 ± 7.9 days
same,Inhibition rate,[1]; 160 μg/Kg/day i.p.,54.0* %
same,Tumor weight,[1]; 160 μg/Kg/day i.p.,1.32 ± 0.68 g
same,Inhibition rate,[1]; 320 μg/Kg/day i.p.,44.7* %
same,Tumor weight,[1]; 320 μg/Kg/day i.p.,1.59 ± 1.017 g
same,Inhibition rate,[1]; 640 μg/Kg/day i.p.,54.4* %
same,Tumor weight,[1]; 640 μg/Kg/day i.p.,1.31 ± 0.77 g
PTTKTY [CMS-001.30],ESTR (exhaustive swimming time extension rate),[2],88.3* %
PTTKTYFP [CMS-001.31],ESTR (exhaustive swimming time extension rate),[2],76.0* %
PTTKTYFPHF [CMS-001],liver glycogen,BALB/c mice [3]; 5 μg/kg/day,439 ± 271 mg/100 g liver tissue
same,liver glycogen,BALB/c mice [3]; 20 μg/kg/day,1567 ± 604 mg/100 g liver tissue
same,Urea Nitrogen,BALB/c mice [4]; 5 μg/kg/day,6.9 ± 1.6 mmol/L
same,Urea Nitrogen,BALB/c mice [4]; 20 μg/kg/day,7.3 ± 2.1 mmol/L
same,ALT,BALB/c mice [5],32.7 ± 3.0 U/L
same,AST,BALB/c mice [5],117.0 ± 19.2 U/L
same,MDA,BALB/c mice [5],4.4 ± 0.2 nmol/L
same,SOD,BALB/c mice [5],400.6 ± 45.6 U/ml
same,Swimming time,[6]; 5 μg/kg/day i.p.,105.7 ± 19.8 min
same,Swimming-time extension,[6]; 5 μg/kg/day i.p.,56.7* %
same,Swimming time,[6]; 20 μg/kg/day i.p.,99.8 ± 30.6 min
same,Swimming-time extension,[6]; 20 μg/kg/day i.p.,48.0* %
same,Lactic acid increase after exercise,BALB/c mice [7]; 5 μg/kg/day,2.60 ± 0.33 mmol/L
same,Lactic acid increase after exercise,BALB/c mice [7]; 20 μg/kg/day,2.56 ± 0.41 mmol/L
same,Lactic acid elimination after rest,BALB/c mice [7]; 5 μg/kg/day,2.96 ± 0.33 mmol/L
same,Lactic acid elimination after rest,BALB/c mice [7]; 20 μg/kg/day,3.14 ± 0.64 mmol/L
"Tyr-Ser-Nle (Tyr-Ser-[Nle]) [CMS-024.04, Nle = norleucine (2-aminohexanoic acid)]",survival of mice transplanted with H22 tumor cells,hepatocarcinoma H22,prolong the survival
same,Survival Prolongation,hepatocarcinoma H22; Table 6.1 experiment,15.8* %
same,Survival time (first column),hepatocarcinoma H22; Table 6.1 experiment,19.0 ± 0.9 days
same,Survival time (second column),hepatocarcinoma H22; Table 6.1 experiment,20.2 ± 4.4 days
Tyr-Thr-Val (YTV; Synthetically prepared peptide sequence) [CMS-024.05],survival of mice transplanted with H22 tumor cells,hepatocarcinoma H22,prolong the survival
same,Survival Prolongation,hepatocarcinoma H22; Table 6.1 experiment,10.4* %
same,Survival time (first column),hepatocarcinoma H22; Table 6.1 experiment,19.0 ± 1.0 days
same,Survival time (second column),hepatocarcinoma H22; Table 6.1 experiment,19.3 ± 2.4 days
